Type in all cases: physicochemical
The nature of data set [1]: Relaxivities of Gd^III chelates, inversion recovery pulse sequence on relaxometer (0.5 T) (Chart 15). The note with it: 40.0° C., 1.0 mM in aq. MOPS/NaOH buffer, pH 7.0.
A short description of data set [2]: Dissociation of chelates in aq. 6.0M HCl at 80° C. (acid decomplexation kinetic inertness) (Chart 17).
Data set [3] can be described thus: Dissociation of chelates in aq. 0.1M HCl at 80° C. (acid decomplexation kinetic inertness) (Chart 19).
Data set [4] can be described thus: Dissociation of chelates in aq. 1.0M HCl at 80° C. (acid decomplexation kinetic inertness) (Chart 18).
A short description of data set [5]: Dissociation of chelates in aq. 0.1M HCl at RT (acid decomplexation kinetic inertness) (Chart 20).
Data set [6] in a line: Formation of 1,5-cz-[Ln(Lig)] from 1,5-cz-Lig (metal dependent direct complexation), RT and 80° C. (Chart 9). Conditions: pH 7.0; for conversion to 1,5-cz-[Ln(Lig)] from 1,5-cz-Lig, Bi^III: ~4% DMSO.
Data set [7] in a line: Formation of 1,5-cz-[Ln(Lig)] from 1,5-cz-Lig (metal dependent direct complexation) (Chart 8). The note with it: pH 7.0.
The nature of data set [8]: Formation of 1,5-cz-[Ln(Lig)] from Lig and Ln^III ions (metal dependent click-zip), MES/NaOH buffer pH 5.2, analytical HPLC (Chart 3).

`C#Cc1cccc(CN2CC[N@]3CCN(Cc4cc(-c5ccccc5)cc(CN=[N+]=[N-])n4)CC[N@@](CC2)CC(=O)[O][Gd][O]C(=O)C3)n1` [TD451] registered a relaxivity in data set [1] of 2.39 mM⁻¹ s⁻¹.
For the molecule `O=C1C[N@@]2CC[N@]3CC[N@@](CC[N@](CC2)Cc2cccc(n2)-c2cnnn2Cc2cc(-c4ccccc4)cc(n2)C3)CC(=O)[O][Gd][O]1` [TD527], in data set [1], the relaxivity is 1.48 mM⁻¹ s⁻¹. The “fraction of intact chelate” value in data set [2] (1 month) turned out to be 0%; in data set [2] (1 week), 0%; in data set [2] (1 hour), 2%; in data set [2] (1 day), 0%; in data set [3] (1 month), 82%; in data set [3] (1 week), 95%. Further, the “fraction of intact chelate” value in data set [3] (1 hour) is given as 100%; in data set [3] (1 day) it was 99%; in data set [4] (1 month), 0%; in data set [4] (1 week) it was 1%; in data set [4] (1 hour) it was 98%; in data set [4] (1 day), 58%. Also, the “fraction of intact chelate” value in data set [5] (1 month), in data set [5] (1 week), in data set [5] (1 hour) and in data set [5] (1 day) was 100% throughout.
Consider `O=C(O)CN1CC[N@]2CCN(CC(=O)O)CC[N@@](CC1)Cc1cccc(n1)-c1cnnn1Cc1cc(-c3ccccc3)cc(n1)C2` [TD650], for which, in data set [6] (A: 1 min at RT), the “conversion to 1,5-cz-[Ln(Lig)] from 1,5-cz-Lig, Cu^II” value is reported as 43% and the “conversion to 1,5-cz-[Ln(Lig)] from 1,5-cz-Lig, Pb^II” value was found to be 98%. Also, in data set [6] (B: 1 hour at RT), the “conversion to 1,5-cz-[Ln(Lig)] from 1,5-cz-Lig, Ca^II” value was found to be 0%; the “conversion to 1,5-cz-[Ln(Lig)] from 1,5-cz-Lig, Cd^II” value was determined as 58%; the “conversion to 1,5-cz-[Ln(Lig)] from 1,5-cz-Lig, Cu^II” value turned out to be 47%; the “conversion to 1,5-cz-[Ln(Lig)] from 1,5-cz-Lig, Ni^II” value is 0%. Further, in data set [6] (B: 1 hour at RT), the “conversion to 1,5-cz-[Ln(Lig)] from 1,5-cz-Lig, Pb^II” value is 99%; the “conversion to 1,5-cz-[Ln(Lig)] from 1,5-cz-Lig, Zn^II” value was found to be 59%; the “conversion to 1,5-cz-[Ln(Lig)] from 1,5-cz-Lig, Bi^III” value was found to be 2%. In data set [6] (C: 1 hour at 80° C.), the “conversion to 1,5-cz-[Ln(Lig)] from 1,5-cz-Lig, Ca^II” value is given as 23%; the “conversion to 1,5-cz-[Ln(Lig)] from 1,5-cz-Lig, Cd^II” value came to 98%; the “conversion to 1,5-cz-[Ln(Lig)] from 1,5-cz-Lig, Cu^II” value was found to be 49%; the “conversion to 1,5-cz-[Ln(Lig)] from 1,5-cz-Lig, Ni^II” value is recorded as 9%. In data set [6] (C: 1 hour at 80° C.), the “conversion to 1,5-cz-[Ln(Lig)] from 1,5-cz-Lig, Pb^II” value is recorded as 98%; the “conversion to 1,5-cz-[Ln(Lig)] from 1,5-cz-Lig, Zn^II” value worked out at 91%; the “conversion to 1,5-cz-[Ln(Lig)] from 1,5-cz-Lig, Bi^III” value is on record as 96%. For the same molecule, in data set [6] (D: 1 week at 80° C.), the “conversion to 1,5-cz-[Ln(Lig)] from 1,5-cz-Lig, Ba^II” value is reported as 0%; the “conversion to 1,5-cz-[Ln(Lig)] from 1,5-cz-Lig, Ca^II” value worked out at 96%; the “conversion to 1,5-cz-[Ln(Lig)] from 1,5-cz-Lig, Cd^II” value is given as 99%; the “conversion to 1,5-cz-[Ln(Lig)] from 1,5-cz-Lig, Cu^II” value stood at 78%. Also, in data set [6] (D: 1 week at 80° C.), the “conversion to 1,5-cz-[Ln(Lig)] from 1,5-cz-Lig, Ga^II” value is reported as 0%; the “conversion to 1,5-cz-[Ln(Lig)] from 1,5-cz-Lig, In^III” value is reported as 0%; the “conversion to 1,5-cz-[Ln(Lig)] from 1,5-cz-Lig, Ni^II” value came out at 11%; the “conversion to 1,5-cz-[Ln(Lig)] from 1,5-cz-Lig, Pb^II” value was 98%. Besides, in data set [6] (D: 1 week at 80° C.), the “conversion to 1,5-cz-[Ln(Lig)] from 1,5-cz-Lig, Sc^III” value was determined as 0%; the “conversion to 1,5-cz-[Ln(Lig)] from 1,5-cz-Lig, Sr^II” value is reported as 0%; the “conversion to 1,5-cz-[Ln(Lig)] from 1,5-cz-Lig, Y^III” value is listed as 0%; the “conversion to 1,5-cz-[Ln(Lig)] from 1,5-cz-Lig, Zn^II” value is 99%. In addition, the “conversion to 1,5-cz-[Ln(Lig)] from 1,5-cz-Lig, Bi^III” value in data set [6] (D: 1 week at 80° C.) worked out at 90%. Also, in data set [7] (A: 1 hour at 80° C.), the “conversion to 1,5-cz-[Ln(Lig)] from 1,5-cz-Lig, Ce^III” value amounted to 0%; the “conversion to 1,5-cz-[Ln(Lig)] from 1,5-cz-Lig, Dy^III” value turned out to be 0%; the “conversion to 1,5-cz-[Ln(Lig)] from 1,5-cz-Lig, Er^III” value worked out at 0%; the “conversion to 1,5-cz-[Ln(Lig)] from 1,5-cz-Lig, Eu^III” value was 0%. Besides, in data set [7] (A: 1 hour at 80° C.), the “conversion to 1,5-cz-[Ln(Lig)] from 1,5-cz-Lig, Gd^III” value came to 0%; the “conversion to 1,5-cz-[Ln(Lig)] from 1,5-cz-Lig, Ho^III” value was found to be 0%; the “conversion to 1,5-cz-[Ln(Lig)] from 1,5-cz-Lig, La^III” value is given as 0%; the “conversion to 1,5-cz-[Ln(Lig)] from 1,5-cz-Lig, Lu^III” value was determined as 0%. Besides, in data set [7] (A: 1 hour at 80° C.), the “conversion to 1,5-cz-[Ln(Lig)] from 1,5-cz-Lig, Nd^III” value stood at 0%; the “conversion to 1,5-cz-[Ln(Lig)] from 1,5-cz-Lig, Pr^III” value was found to be 0%; the “conversion to 1,5-cz-[Ln(Lig)] from 1,5-cz-Lig, Sm^III” value was 0%; the “conversion to 1,5-cz-[Ln(Lig)] from 1,5-cz-Lig, Tb^III” value is given as 0%. Moreover, in data set [7] (A: 1 hour at 80° C.), the “conversion to 1,5-cz-[Ln(Lig)] from 1,5-cz-Lig, Tm^III” value was found to be 0% and the “conversion to 1,5-cz-[Ln(Lig)] from 1,5-cz-Lig, Yb^III” value is recorded as 0%. In data set [7] (B: 1 week at 80° C.), the “conversion to 1,5-cz-[Ln(Lig)] from 1,5-cz-Lig, Ce^III” value stood at 0%; the “conversion to 1,5-cz-[Ln(Lig)] from 1,5-cz-Lig, Dy^III” value was found to be 0%; the “conversion to 1,5-cz-[Ln(Lig)] from 1,5-cz-Lig, Er^III” value stood at 0%; the “conversion to 1,5-cz-[Ln(Lig)] from 1,5-cz-Lig, Eu^III” value was determined as 0%. Further, in data set [7] (B: 1 week at 80° C.), the “conversion to 1,5-cz-[Ln(Lig)] from 1,5-cz-Lig, Gd^III” value is listed as 0%; the “conversion to 1,5-cz-[Ln(Lig)] from 1,5-cz-Lig, Ho^III” value is given as 0%; the “conversion to 1,5-cz-[Ln(Lig)] from 1,5-cz-Lig, La^III” value is reported as 0%; the “conversion to 1,5-cz-[Ln(Lig)] from 1,5-cz-Lig, Lu^III” value is on record as 0%. In data set [7] (B: 1 week at 80° C.), the “conversion to 1,5-cz-[Ln(Lig)] from 1,5-cz-Lig, Nd^III” value was determined as 0%; the “conversion to 1,5-cz-[Ln(Lig)] from 1,5-cz-Lig, Pr^III” value is reported as 0%; the “conversion to 1,5-cz-[Ln(Lig)] from 1,5-cz-Lig, Sm^III” value stood at 0%; the “conversion to 1,5-cz-[Ln(Lig)] from 1,5-cz-Lig, Tb^III” value was determined as 0%. Besides, in data set [7] (B: 1 week at 80° C.), the “conversion to 1,5-cz-[Ln(Lig)] from 1,5-cz-Lig, Tm^III” value was found to be 0% and the “conversion to 1,5-cz-[Ln(Lig)] from 1,5-cz-Lig, Yb^III” value turned out to be 0%. For the same molecule, in data set [7] (C: ~6 months at 80° C.), the “conversion to 1,5-cz-[Ln(Lig)] from 1,5-cz-Lig, Gd^III” value turned out to be 0% and the “conversion to 1,5-cz-[Ln(Lig)] from 1,5-cz-Lig, Lu^III” value amounted to 0%.
On to `[N-]=[N+]=NCc1cc(-c2ccc(C(=O)O)cc2)cc(CN2CCN(CC(=O)O)CCN(Cc3cccc(C#CCN)n3)CCN(CC(=O)O)CC2)n1` [TD750], for which, in data set [8] (after 1 hour at 80° C. (A)), the “conversion to 1,5-cz-[Ln(Lig)], Gd^III” value turned out to be 3% and the “conversion to 1,5-cz-[Ln(Lig)], Lu^III” value is on record as 19%. In data set [8] (after 18 hours at 80° C. (B)), the “conversion to 1,5-cz-[Ln(Lig)], Gd^III” value was determined as 9% and the “conversion to 1,5-cz-[Ln(Lig)], Lu^III” value was 71%.

(Values after US20250147039A1, “Compounds for complexation of rare earth elements and/or s-, p-, d- block metals, their coordination compounds, peptide conjugates, method of their preparation and use thereof” (USTAV ORGANICKE CHEMIE A BIOCHEMIE AV CR V.V.I., priority 2021, published 2025).)
